One test concerns the target T1, recombinant human GR (Homo sapiens, UniProt P04150).
T1 construct: purchased Panvera/Invitrogen P2812 (kit P2893)
T1 sequence (P04150 1-777): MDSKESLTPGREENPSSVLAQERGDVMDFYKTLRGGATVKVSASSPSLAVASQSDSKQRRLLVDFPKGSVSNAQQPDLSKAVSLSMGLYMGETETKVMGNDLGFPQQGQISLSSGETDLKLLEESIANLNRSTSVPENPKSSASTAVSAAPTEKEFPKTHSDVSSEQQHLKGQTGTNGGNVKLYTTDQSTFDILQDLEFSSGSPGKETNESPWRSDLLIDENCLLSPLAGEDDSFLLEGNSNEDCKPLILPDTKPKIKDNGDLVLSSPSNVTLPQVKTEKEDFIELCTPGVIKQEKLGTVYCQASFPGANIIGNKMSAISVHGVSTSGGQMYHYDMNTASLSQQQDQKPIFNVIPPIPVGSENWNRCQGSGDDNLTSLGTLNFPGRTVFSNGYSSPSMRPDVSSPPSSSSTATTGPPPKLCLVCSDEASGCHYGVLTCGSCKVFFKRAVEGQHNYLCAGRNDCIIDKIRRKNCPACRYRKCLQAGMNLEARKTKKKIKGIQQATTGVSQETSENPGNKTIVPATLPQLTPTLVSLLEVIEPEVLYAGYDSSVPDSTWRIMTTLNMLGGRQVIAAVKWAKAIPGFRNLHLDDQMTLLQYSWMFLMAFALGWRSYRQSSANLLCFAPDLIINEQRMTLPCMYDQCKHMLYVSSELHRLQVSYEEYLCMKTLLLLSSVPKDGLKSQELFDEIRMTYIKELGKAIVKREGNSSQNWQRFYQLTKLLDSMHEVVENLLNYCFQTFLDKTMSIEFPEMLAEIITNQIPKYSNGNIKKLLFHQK
Kind of test: Human Glucocorticoid Receptor (GR) Assay (fluorescence polarization, Panvera/Invitrogen kit). The test is classed as binding.
Settings: not given
In outline: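 Fluorescence polarization competition with recombinant GR and GS Red fluorescent ligand plus stabilizing peptide and DTT in potassium phosphate/sodium molybdate/EDTA buffer with DMSO. Incubated 2 hours at room temperature in the dark; 0% control DMSO, 100% control 10 μM dexamethasone.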
As to `Cc1occc1C(=O)O[C@]1(C(=O)SCCO)CC[C@H]2[C@@H]3CCC4=Cc5c(cnn5-c5ccc(F)cc5)C[C@]4(C)[C@H]3[C@@H](O)C[C@@]21C` [Example 55, (1R,3aS,3bS,10aR,10bS,11S,12aS)-7-(4-Fluorophenyl)-11-hydroxy-1-{[(2-hydroxy-ethyl)thio]carbonyl}-10a,12a-dimethyl-1,2,3,3a,3b,4,5,7,10,10a,10b,11,12,12a-tetradecahydrocyclopenta[5,6]naphtho[1,2-f]indazol-1-yl 2-methylfuran-3-carboxylate], the half-inhibitory concentration (IC50) was determined as 7 nM.

Still in this test, the particulars now being: fluorescence polarization; GS Red tracer; 2 hours at room temperature; 100% control 10 μM Dexamethasone; read-out: Inhibition of GR binding, IC50.
`C[C@]12Cc3cnn(-c4ccc(F)cc4)c3C=C1CC[C@@H]1[C@@H]2[C@@H](O)C[C@@]2(C)[C@H]1CC[C@]2(OC(=O)c1ccoc1)C(=O)SCF` [Example 51, (1R,3aS,3bS,10aR,10bS,11S,12aS)-1-{[(Fluoromethyl)thio]carbonyl}-7-(4-fluoro-phenyl)-11-hydroxy-10a,12a-dimethyl-1,2,3,3a,3b,4,5,7,10,10a,10b,11,12,12a-tetradecahydrocyclopenta[5,6]naphtho[1,2-f]indazol-1-yl furan-3-carboxylate]: the 50% inhibitory concentration (IC50) came to 6.9 nM.

With `C[C@]12Cc3cnn(-c4ccc(F)cc4)c3C=C1CC[C@@H]1[C@@H]2[C@@H](O)C[C@@]2(C)[C@H]1CC[C@]2(OC(=O)c1ccoc1)C(=O)SCCO` [Example 52, (1R,3aS,3bS,10aR,10bS,11S,12aS)-7-(4-Fluorophenyl)-11-hydroxy-1-{[(2-hydroxy-ethyl)thio]carbonyl}-10a,12a-dimethyl-1,2,3,3a,3b,4,5,7,10,10a,10b,11,12,12a-tetradecahydrocyclopenta[5,6]naphtho[1,2-f]indazol-1-yl furan-3-carboxylate], the IC50 was 6.4 nM.

As for `Cc1occc1C(=O)O[C@]1(C(=O)SCC#N)CC[C@H]2[C@@H]3CCC4=Cc5c(cnn5-c5ccc(F)cc5)C[C@]4(C)[C@H]3[C@@H](O)C[C@@]21C` [Example 53, (1R,3aS,3bS,10aR,10bS,11S,12aS)-1-{[(Cyanomethyl)sulfanyl]carbonyl}-7-(4-fluoro-phenyl)-11-hydroxy-10a,12a-dimethyl-1,2,3,3a,3b,4,5,7,10,10a,10b,11,12,12a-tetradecahydrocyclopenta[5,6]naphtho[1,2-f]indazol-1-yl 2-methylfuran-3-carboxylate], the IC50 came to 9 nM.

As for `Cc1occc1C(=O)O[C@]1(C(=O)SCF)CC[C@H]2[C@@H]3CCC4=Cc5c(cnn5-c5ccc(F)cc5)C[C@]4(C)[C@H]3[C@@H](O)C[C@@]21C` [Example 54, (1R,3aS,3bS,10aR,10bS,11S,12aS)-1-{[(Fluoromethyl)thio]carbonyl}-7-(4-fluorophenyl)-11-hydroxy-10a,12a-dimethyl-1,2,3,3a,3b,4,5,7,10,10a,10b,11,12,12a-tetradecahydropcyclopenta[5,6]naphtho[1,2]-indazol-1-yl 2-methylfuran-3-carboxylate], the IC50 stood at 7.3 nM.

Regarding `Cc1ccoc1C(=O)O[C@]1(C(=O)SCC#N)CC[C@H]2[C@@H]3CCC4=Cc5c(cnn5-c5ccc(F)cc5)C[C@]4(C)[C@H]3[C@@H](O)C[C@@]21C` [Example 56, (1R,3aS,3bS,10aR,10bS,11S,12aS)-1-{[(Cyanomethyl)thio]carbonyl}-7-(4-fluorophenyl)-11-hydroxy-10a,12a-dimethyl-1,2,3,3a,3b,4,5,7,10,10a,10b,11,12,12a-tetradecahydropcyclopenta[5,6]naphtho[1,2-f]indazol-1-yl 3-methylfuran-2-carboxylate], the IC50 came to 6.5 nM.

As for `Cc1ccoc1C(=O)O[C@]1(C(=O)SCF)CC[C@H]2[C@@H]3CCC4=Cc5c(cnn5-c5ccc(F)cc5)C[C@]4(C)[C@H]3[C@@H](O)C[C@@]21C` [Example 57, (1R,3aS,3bS,10aR,10bS,11S,12aS)-1-{[(Fluoromethyl)thio]carbonyl}-7-(4-fluorophenyl)-11-hydroxy-10a,12a-dimethyl-1,2,3,3a,3b,4,5,7,10,10a,10b,11,12,12a-tetradecaphydrocyclopenta[5,6]naphtho[1,2-f]indazol-1-yl 3-methylfuran-2-carboxylate], the IC50 stood at 3.8 nM.

The IC50 is the concentration that inhibits the measured activity by half.

The record behind these values is patent US8163724B2, “Glucocorticosteroids, processes for their preparation, pharmaceutical compositions containing them and their use in therapy” (AstraZeneca AB, priority 2007, dated 2012).
